From ChEMBL document CHEMBL3751837, “Synthesis of tetravalent LacNAc-glycoclusters as high-affinity cross-linker against Erythrina cristagalli agglutinin” (Bioorg Med Chem, 2016)
The source made the active and inactive calls. The calls are words filed in the database; no cut-off is given here.

Assays:
Erythrina crista-galli [1] = assay: Inhibition of Erythrina crista-galli agglutinin-mediated hemagglutination assessed as concentration of LacNAc unit after 40 mins in presence of rabbit erythrocytes relative to LacNAc; type: cell-based
Erythrina crista-galli [2] = assay: Inhibition of Erythrina crista-galli agglutinin-mediated hemagglutination assessed as concentration of LacNAc unit after 40 mins in presence of rabbit erythrocytes; type: cell-based
[3] = Binding affinity to Erythrina crista-galli agglutinin by isothermal titration calorimetry analysis
Erythrina crista-galli [4] = assay: Binding affinity to Erythrina crista-galli agglutinin by isothermal titration calorimetry analysis relative to 3-TFAP-beta-LacNAc
Erythrina crista-galli [5] = assay: Binding affinity to Erythrina crista-galli agglutinin at 0.625 to 480 uM by quantitative precipitation assay
Erythrina crista-galli [6] = assay: Inhibition of Erythrina crista-galli agglutinin-mediated hemagglutination after 40 mins in presence of rabbit erythrocytes; type: cell-based
Erythrina crista-galli [7] = assay: Binding affinity to Erythrina crista-galli agglutinin assessed as particle size by measuring DLS volume hydrodynamic diameter centered positions at 2.5 uM by dynamic light scattering analysis (reference value: 8.2 nanometer)
Erythrina crista-galli [8] = assay: Binding affinity to Erythrina crista-galli agglutinin assessed as particle size by measuring DLS volume hydrodynamic diameter centered positions at 20 uM by dynamic light scattering analysis (reference value: 8.2 nanometer)
Erythrina crista-galli [9] = assay: Binding affinity to Erythrina crista-galli agglutinin assessed as particle size by measuring DLS volume hydrodynamic diameter centered positions at 5 uM by dynamic light scattering analysis (reference value: 8.2 nanometer)
Erythrina crista-galli [10] = assay: Binding affinity to Erythrina crista-galli agglutinin at 0.625 to 480 uM by dynamic light scattering analysis
Erythrina crista-galli [11] = assay: Binding affinity to Erythrina crista-galli agglutinin assessed as formation of large aggregate at 5 to 10 uM by dynamic light scattering analysis
Erythrina crista-galli [12] = assay: Binding affinity to Erythrina crista-galli agglutinin assessed as particle size by measuring DLS volume hydrodynamic diameter centered positions at 240 uM by dynamic light scattering analysis (reference value: 8.2 nanometer)
Erythrina crista-galli [13] = assay: Binding affinity to Erythrina crista-galli agglutinin assessed as particle size by measuring DLS volume hydrodynamic diameter centered positions at 10 uM by dynamic light scattering analysis (reference value: 8.2 nanometer)

Row | MIC (Erythrina crista-galli [2]) | Kd [3] | Ratio (Erythrina crista-galli [4]) | Activity (Erythrina crista-galli [5]) | MIC (Erythrina crista-galli [6]) | Activity (Erythrina crista-galli [7]) | Activity (Erythrina crista-galli [8]) | Activity (Erythrina crista-galli [9]) | Activity (Erythrina crista-galli [10]) | Activity (Erythrina crista-galli [11]) | Activity (Erythrina crista-galli [12]) | Activity (Erythrina crista-galli [13]) | Compound | Ratio (Erythrina crista-galli [1])
1 | 3 µM | 3.9 µM | 9 | 95% | 0.75 µM |  |  |  |  |  |  |  | CC(=O)N[C@H]1[C@H](OCCCNC(=O)C[C@H](NC(=O)CCCCCCCCC(=O)N[C@@H](CC(=O)NCCCO[C@@H]2O[C@H](CO)[C@@H](O[C@@H]3O[C@H](CO)[C@@H](O)[C@H](O)[C@H]3O)[C@H](O)[C@H]2NC(C)=O)C(=O)NCCCO[C@@H]2O[C@H](CO)[C@@H](O[C@@H]3O[C@H](CO)[C@@H](O)[C@H](O)[C@H]3O)[C@H](O)[C@H]2NC(C)=O)C(=O)NCCCO[C@@H]2O[C@H](CO)[C@@H](O[C@@H]3O[C@H](CO)[C@@H](O)[C@H](O)[C@H]3O)[C@H](O)[C@H]2NC(C)=O)O[C@H](CO)[C@@H](O[C@@H]2O[C@H](CO)[C@@H](O)[C@H](O)[C@H]2O)[C@@H]1O | 8
2 | 3 µM | 17.5 µM | 2 | 20% | 1.5 µM |  |  |  |  |  |  |  | CC(=O)N[C@H]1[C@H](OCCCCCNC(=O)CCCSSCCCC(=O)NCCCCCO[C@@H]2O[C@H](CO)[C@@H](O[C@@H]3O[C@H](CO)[C@@H](O)[C@H](O)[C@H]3O)[C@H](O)[C@H]2NC(C)=O)O[C@H](CO)[C@@H](O[C@@H]2O[C@H](CO)[C@@H](O)[C@H](O)[C@H]2O)[C@@H]1O | 8
3 | 3 µM | 15.6 µM | 2.3 | 41% | 1.5 µM |  |  |  |  |  |  |  | CC(=O)N[C@H]1[C@H](OCCCCCNC(=O)CCCCCNC(=O)CCCSSCCCC(=O)NCCCCCC(=O)NCCCCCO[C@@H]2O[C@H](CO)[C@@H](O[C@@H]3O[C@H](CO)[C@@H](O)[C@H](O)[C@H]3O)[C@H](O)[C@H]2NC(C)=O)O[C@H](CO)[C@@H](O[C@@H]2O[C@H](CO)[C@@H](O)[C@H](O)[C@H]2O)[C@@H]1O | 8
4 | 6 µM | 7.2 µM | 4.9 | 95% | 1.5 µM |  |  |  |  |  |  |  | CC(=O)N[C@H]1[C@H](OCCCNC(=O)C[C@H](NC(=O)CCCCC(=O)N[C@@H](CC(=O)NCCCO[C@@H]2O[C@H](CO)[C@@H](O[C@@H]3O[C@H](CO)[C@@H](O)[C@H](O)[C@H]3O)[C@H](O)[C@H]2NC(C)=O)C(=O)NCCCO[C@@H]2O[C@H](CO)[C@@H](O[C@@H]3O[C@H](CO)[C@@H](O)[C@H](O)[C@H]3O)[C@H](O)[C@H]2NC(C)=O)C(=O)NCCCO[C@@H]2O[C@H](CO)[C@@H](O[C@@H]3O[C@H](CO)[C@@H](O)[C@H](O)[C@H]3O)[C@H](O)[C@H]2NC(C)=O)O[C@H](CO)[C@@H](O[C@@H]2O[C@H](CO)[C@@H](O)[C@H](O)[C@H]2O)[C@@H]1O | 4

Further lines, the molecule ahead of its results:

Row | Compound | MIC (Erythrina crista-galli [2]) | Kd [3] | Ratio (Erythrina crista-galli [4]) | Activity (Erythrina crista-galli [5]) | MIC (Erythrina crista-galli [6]) | Activity (Erythrina crista-galli [7]) | Activity (Erythrina crista-galli [8]) | Activity (Erythrina crista-galli [9]) | Activity (Erythrina crista-galli [10]) | Activity (Erythrina crista-galli [11]) | Activity (Erythrina crista-galli [12]) | Activity (Erythrina crista-galli [13]) | Ratio (Erythrina crista-galli [1])
5 | CC(=O)N[C@H]1[C@H](OCCOCCNC(=O)CN(CCOCCOCCN(CC(=O)NCCOCCO[C@@H]2O[C@H](CO)[C@@H](O[C@@H]3O[C@H](CO)[C@@H](O)[C@H](O)[C@H]3O)[C@H](O)[C@H]2NC(C)=O)CC(=O)NCCOCCO[C@@H]2O[C@H](CO)[C@@H](O[C@@H]3O[C@H](CO)[C@@H](O)[C@H](O)[C@H]3O)[C@H](O)[C@H]2NC(C)=O)CC(=O)NCCOCCO[C@@H]2O[C@H](CO)[C@@H](O[C@@H]3O[C@H](CO)[C@@H](O)[C@H](O)[C@H]3O)[C@H](O)[C@H]2NC(C)=O)O[C@H](CO)[C@@H](O[C@@H]2O[C@H](CO)[C@@H](O)[C@H](O)[C@H]2O)[C@@H]1O | 12 µM | 7.2 µM | 4.9 | Active | 3 µM |  |  |  |  |  |  |  | 2
6 | CC(=O)N[C@H]1[C@H](OCCOCCNC(=O)CCCCCNC(=O)CN(CCOCCOCCN(CC(=O)NCCCCCC(=O)NCCOCCO[C@@H]2O[C@H](CO)[C@@H](O[C@@H]3O[C@H](CO)[C@@H](O)[C@H](O)[C@H]3O)[C@H](O)[C@H]2NC(C)=O)CC(=O)NCCCCCC(=O)NCCOCCO[C@@H]2O[C@H](CO)[C@@H](O[C@@H]3O[C@H](CO)[C@@H](O)[C@H](O)[C@H]3O)[C@H](O)[C@H]2NC(C)=O)CC(=O)NCCCCCC(=O)NCCOCCO[C@@H]2O[C@H](CO)[C@@H](O[C@@H]3O[C@H](CO)[C@@H](O)[C@H](O)[C@H]3O)[C@H](O)[C@H]2NC(C)=O)O[C@H](CO)[C@@H](O[C@@H]2O[C@H](CO)[C@@H](O)[C@H](O)[C@H]2O)[C@@H]1O | 6 µM | 6 µM | 5.9 | Active | 1.5 µM |  |  |  |  |  |  |  | 4
7 | CC(=O)N[C@H]1[C@H](OCCCNC(=O)C(F)(F)F)O[C@H](CO)[C@@H](O[C@@H]2O[C@H](CO)[C@@H](O)[C@H](O)[C@H]2O)[C@@H]1O |  | 35.2 µM |  | inactive |  |  |  |  |  |  |  |  | 
8 | CC(=O)N[C@H]1[C@H](OCCCNC(=O)C[C@H](NC(=O)CCCCCNC(=O)CCCCCCCCCCC(=O)NCCCCCC(=O)N[C@@H](CC(=O)NCCCO[C@@H]2O[C@H](CO)[C@@H](O[C@@H]3O[C@H](CO)[C@@H](O)[C@H](O)[C@H]3O)[C@H](O)[C@H]2NC(C)=O)C(=O)NCCCO[C@@H]2O[C@H](CO)[C@@H](O[C@@H]3O[C@H](CO)[C@@H](O)[C@H](O)[C@H]3O)[C@H](O)[C@H]2NC(C)=O)C(=O)NCCCO[C@@H]2O[C@H](CO)[C@@H](O[C@@H]3O[C@H](CO)[C@@H](O)[C@H](O)[C@H]3O)[C@H](O)[C@H]2NC(C)=O)O[C@H](CO)[C@@H](O[C@@H]2O[C@H](CO)[C@@H](O)[C@H](O)[C@H]2O)[C@@H]1O | 0.56 µM | 2.3 µM | 15.3 | 95% | 0.14 µM | 1880 nm | 2280 nm | 1750 nm | Active |  |  |  | 43
9 | CC(=O)N[C@H]1C(O)O[C@H](CO)[C@@H](O[C@@H]2O[C@H](CO)[C@@H](O)[C@H](O)[C@H]2O)[C@@H]1O (some centres not stated) | 24 µM |  |  |  | 24 µM |  |  |  |  |  |  |  | 
10 | CC(=O)N[C@H]1[C@H](OCCCNC(=O)C[C@H](NC(=O)CCCCCCCCCCCCCCCCC(=O)N[C@@H](CC(=O)NCCCO[C@@H]2O[C@H](CO)[C@@H](O[C@@H]3O[C@H](CO)[C@@H](O)[C@H](O)[C@H]3O)[C@H](O)[C@H]2NC(C)=O)C(=O)NCCCO[C@@H]2O[C@H](CO)[C@@H](O[C@@H]3O[C@H](CO)[C@@H](O)[C@H](O)[C@H]3O)[C@H](O)[C@H]2NC(C)=O)C(=O)NCCCO[C@@H]2O[C@H](CO)[C@@H](O[C@@H]3O[C@H](CO)[C@@H](O)[C@H](O)[C@H]3O)[C@H](O)[C@H]2NC(C)=O)O[C@H](CO)[C@@H](O[C@@H]2O[C@H](CO)[C@@H](O)[C@H](O)[C@H]2O)[C@@H]1O | 0.76 µM | 2.5 µM | 14.1 | 95% | 0.19 µM |  | 2030 nm | 1110 nm | Active | Active | 788 nm | 1510 nm | 32
